Read-outs that look alike come from different tables or passages of the source.

Assay [1] concerns the target T1, human wild type STING (WT STING) (Homo sapiens, UniProt Q86WV6, H232R).
T1 construct: host or cells: 293T cells (ATCC CRL-3216), stably double transfected with pUNO1-hSTING-WT and pGL64.27-4×ISRE
In words: 293T WT STING standard reporter assay. As to conditions: no digitonin, 7 hours, ISRE firefly luciferase. The format is cell-based. An excerpt: Two complementary oligonucleotides of the sequence […] […] […] […] […] The oligonucleotides were mixed in equal molar amounts, hybridized, and cleaved by restriction endonucleases HindIII (cat. #. R0104S, NEB, Ipswich, USA) and BglII (cat. #R0144S, NEB, Ipswich, USA). Ultimately, they were ligated into plasmid pGL4.27 (cat. #E6651, Promega, Madison, USA) linearized with the same enzymes. As result the sequence with four ISRE sites was placed upstream of the minimum promoter of firefly luciferase reporter gene.
After 5 minutes incubation at room temperature (RT), 250 μL of the mixture was added dropwise to the cells in one well. Cells were incubated 36 hours at 37° C. with 5% CO2, and then detached with 0.05% Trypsin and 0.22 g/L EDTA (both cat. #L0941, Biowest, Riverside, USA).
Transfected cells were seeded onto poly-D-lysine coated six well plates at density 50,000 cells per 1 cm^2 in DMEM medium with high glucose containing 10% heat inactivated FBS, 30 μg/mL blasticidin (cat. #ant-b1-05, InvivoGen, San Diego, USA), 0.06 mg/ml Penicillin G and 0.1 mg/ml Streptomycin Sulfate (both cat. #. L0018, Biowest, Riverside, USA). The medium was replenished every 3-4 days until visible colonies of cells resistant to blasticidin were formed.
Blasticidin resistant cells stably expressing WT STING were further transfected with pGL64.27-4×ISRE plasmid following the same procedure as described above. […] Homogeneous culture of stably double transfected cells was prepared by limiting dilution of cells in 96 well plates and wells with cells were selected that originated from a single cell.
The medium was removed the next day and three-fold serial dilutions of compounds in 100 μl medium were added to the cells. The plates were incubated for 7 hours at 37° C. with 5% CO2. Next 50 μl of the medium was removed from wells, and 30 μl of ONE-Glo™ Luciferase Assay System reagent (cat. #E6120, Promega, Madison, USA) was added to each well. Luminescence was read on Synergy H1 (Biotek, Winooski, USA).

For assay [2], the system named is peripheral blood mononuclear cell (PBMC). In words: Peripheral blood mononuclear cell assay (cytokine levels). The format is cell-based. The method, then: Selected compounds were tested in an in vitro peripheral blood mononuclear cell (PBMC) assay. […] Serially diluted tested compounds were added to wells in 50 μl of cultivation medium and cell were incubated with compounds for 1 h at 37° C. with 5% CO2. Plates with cells were then spun 500 g for 5 minutes and medium was removed. Cells were washed twice with the cell culture medium by the use of centrifugation and gently resuspended in 100 μl medium without compounds. After 15 hour incubation at 37° C. with 5% CO2, the cell culture medium was collected and the levels of interferon-alpha (INF-α), interferon-gamma (INF-γ) and tumor necrosis factor-alpha (TNF-α) were determined with ProcartaPlex Assays (ThermoFisher, Waltham, USA) and MAGPIX System (Merck KGaA, Darmstadt, Germany). […] Values reported are an average of runs from one to four donors.

[3] abbreviates: 293T wtSTING-FL cells, read-out: 293T WT STING EC50.
The mark [4] stands for this setting: 1 h with compound, wash, 15 hour incubation, average of one to four donors, read-out: PBMC EC50 IFN-α.
Setting [5] is: 1 h with compound, wash, 15 hour incubation, average of one to four donors, read-out: PBMC EC50 TNF-α.
The mark [6] stands for this setting: 1 h with compound, wash, 15 hour incubation, average of one to four donors, read-out: PBMC EC50 IFN-γ.
Where [7] appears, read: 293T WT STING EC50, 293T wtSTING-FL cells.
Setting [8] is: read-out: PBMC EC50 IFN-α, 1 h with compound, wash, 15 hour incubation, average of one to four donors.
Setting [9] is: read-out: PBMC EC50 IFN-γ, 1 h with compound, wash, 15 hour incubation, average of one to four donors.

T1 sequence (Q86WV6 whole entry H232R): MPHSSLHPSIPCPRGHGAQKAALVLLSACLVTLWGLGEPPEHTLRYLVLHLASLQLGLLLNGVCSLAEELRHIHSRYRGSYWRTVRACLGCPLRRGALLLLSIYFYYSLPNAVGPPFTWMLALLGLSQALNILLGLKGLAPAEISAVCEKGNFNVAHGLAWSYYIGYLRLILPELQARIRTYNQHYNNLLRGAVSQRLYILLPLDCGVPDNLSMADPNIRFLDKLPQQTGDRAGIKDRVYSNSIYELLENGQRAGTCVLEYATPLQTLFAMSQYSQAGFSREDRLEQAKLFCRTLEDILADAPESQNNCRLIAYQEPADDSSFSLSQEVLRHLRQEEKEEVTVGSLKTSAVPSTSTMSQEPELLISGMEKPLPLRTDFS

Usually EC50 stands for the concentration needed to bring the measured effect to its halfway point. Regarding `CCCCCCCC(=O)OCOP1(=O)CO[C@H]2[C@@H](F)[C@H](n3cnc4c(N)ncnc43)O[C@@H]2COP(=O)(OCOC(=O)CCCCCCC)O[C@H]2[C@@H](F)[C@H](n3cnc4c(N)ncnc43)O[C@@H]2CO1` (mixture of isomers) [Compound 46b, {[(1R,6R,8R,9R,10R,16R,18R,19R)-8,18-bis(6-amino-9H-purin-9-yl)-9,19-difluoro-13-[(octanoyloxy)methoxy]-3,13-dioxo-2,4,7,11,14,17-hexaoxa-3λ^5,13λ^5-diphosphatricyclo[14.3.0.0^6,^10]nonadecan-3-yl]oxy}methyl octanoate], the EC50 amounted to 2 nM in assay [1] (setting [3]), 4 nM in assay [2] (setting [4]) and 1 nM in assay [2] (setting [5]).

Consider `CC(C)(C)C(=O)OCOP1(=O)CO[C@H]2[C@@H](F)[C@H](n3cnc4c(N)ncnc43)O[C@@H]2COP(=O)(OCOC(=O)C(C)(C)C)O[C@H]2[C@@H](F)[C@H](n3cnc4c(N)ncnc43)O[C@@H]2CO1` (single isomer, unassigned) [Compound 41c], for which the EC50 in assay [1] (setting [3]) stood at 11 nM; in assay [2] (setting [4]), 70 nM; in assay [2] (setting [6]), 60 nM; in assay [2] (setting [5]), 60 nM.

With `CC(C)OC(=O)OCOP1(=O)CO[C@H]2[C@@H](F)[C@H](n3cnc4c(N)ncnc43)O[C@@H]2COP(=O)(OCOC(=O)OC(C)C)O[C@H]2[C@@H](F)[C@H](n3cnc4c(N)ncnc43)O[C@@H]2CO1` (single isomer, unassigned) [Compound 42c], the EC50 was found to be 50 nM in assay [1] (setting [3]), 600 nM in assay [2] (setting [4]), 300 nM in assay [2] (setting [6]) and 600 nM in assay [2] (setting [5]).

Take `CCCCCCCCCCCC(=O)OCSP1(=O)CO[C@H]2[C@@H](F)[C@H](n3cnc4c(N)ncnc43)O[C@@H]2COP(=O)(SCOC(=O)CCCCCCCCCCC)O[C@H]2[C@@H](F)[C@H](n3cnc4c(N)ncnc43)O[C@@H]2CO1` (single isomer, unassigned) [Compound 43b]: the concentration giving a half-maximal response (EC50) was 30 nM in assay [1] (setting [7]); 400 nM in assay [2] (setting [8]); 300 nM in assay [2] (setting [9]); 200 nM in assay [2] (read-out: PBMC EC50 TNF-α, PBMC, 1 h with compound, wash, 15 hour incubation, average of one to four donors).

As to `CCCCCCCCCCCC(=O)OCSP1(=O)CO[C@H]2[C@@H](F)[C@H](n3cnc4c(N)ncnc43)O[C@@H]2COP(=O)(SCOC(=O)CCCCCCCCCCC)O[C@H]2[C@@H](F)[C@H](n3cnc4c(N)ncnc43)O[C@@H]2CO1` (single isomer, unassigned) [Compound 43c], the EC50 turned out to be 60 nM in assay [1] (setting [7]); 900 nM in assay [2] (setting [8]); 100 nM in assay [2] (setting [9]); 300 nM in assay [2] (read-out: PBMC EC50 TNF-α, 1 h with compound, wash, 15 hour incubation, average of one to four donors).

`CCC(C)(C)C(=O)OCOP1(=O)CO[C@H]2[C@@H](F)[C@H](n3cnc4c(N)ncnc43)O[C@@H]2COP(=O)(OCOC(=O)C(C)(C)CC)O[C@H]2[C@@H](F)[C@H](n3cnc4c(N)ncnc43)O[C@@H]2CO1` (single isomer, unassigned) [Compound 44a]: the EC50 in assay [1] (setting [3]) stood at 10 nM; in assay [2] (setting [4]) it was 1000 nM; in assay [2] (setting [6]), 500 nM; in assay [2] (setting [5]) it was 600 nM.

Regarding `CCC(C)(C)C(=O)OCOP1(=O)CO[C@H]2[C@@H](F)[C@H](n3cnc4c(N)ncnc43)O[C@@H]2COP(=O)(OCOC(=O)C(C)(C)CC)O[C@H]2[C@@H](F)[C@H](n3cnc4c(N)ncnc43)O[C@@H]2CO1` (single isomer, unassigned) [Compound 44c], the concentration for a half-maximal effect (EC50) in assay [1] (setting [3]) is 6 nM; in assay [2] (setting [4]), 100 nM; in assay [2] (setting [6]), 1700 nM; in assay [2] (setting [5]) it was 1000 nM.

As for `CC1(C(=O)OCOP2(=O)CO[C@H]3[C@@H](F)[C@H](n4cnc5c(N)ncnc54)O[C@@H]3COP(=O)(OCOC(=O)C3(C)CCCCC3)O[C@H]3[C@@H](F)[C@H](n4cnc5c(N)ncnc54)O[C@@H]3CO2)CCCCC1` (single isomer, unassigned) [Compound 45a], the EC50 stood at 60 nM in assay [1] (setting [3]), 1000 nM in assay [2] (setting [4]), 8000 nM in assay [2] (setting [6]) and 500 nM in assay [2] (setting [5]).

As to `CC1(C(=O)OCOP2(=O)CO[C@H]3[C@@H](F)[C@H](n4cnc5c(N)ncnc54)O[C@@H]3COP(=O)(OCOC(=O)C3(C)CCCCC3)O[C@H]3[C@@H](F)[C@H](n4cnc5c(N)ncnc54)O[C@@H]3CO2)CCCCC1` (single isomer, unassigned) [Compound 45c], the EC50 in assay [1] (setting [3]) worked out at 70 nM; in assay [2] (setting [4]), 300 nM; in assay [2] (setting [6]), 200 nM; in assay [2] (setting [5]), 400 nM.

As to `CCCCCCCC(=O)OCOP1(=O)CO[C@H]2[C@@H](F)[C@H](n3cnc4c(N)ncnc43)O[C@@H]2COP(=O)(OCOC(=O)CCCCCCC)O[C@H]2[C@@H](F)[C@H](n3cnc4c(N)ncnc43)O[C@@H]2CO1` (single isomer, unassigned) [Compound 46a], the concentration for a half-maximal effect (EC50) in assay [1] (setting [3]) turned out to be 5 nM; in assay [2] (setting [4]), 3 nM; in assay [2] (setting [5]), 1 nM.

With `CCCCCCCC(=O)OCOP1(=O)CO[C@H]2[C@@H](F)[C@H](n3cnc4c(N)ncnc43)O[C@@H]2COP(=O)(OCOC(=O)CCCCCCC)O[C@H]2[C@@H](F)[C@H](n3cnc4c(N)ncnc43)O[C@@H]2CO1` (single isomer, unassigned) [Compound 46c], the EC50 is 1 nM in assay [1] (setting [3]), 20 nM in assay [2] (setting [4]) and 10 nM in assay [2] (setting [5]).

Values taken from patent US20220143061A1, “3'3'-CYCLIC DINUCLEOTIDES AND PRODRUGS THEREOF” (INSTITUTE OF ORGANIC CHEMISTRY AND BIOCHEMISTRY ASCR, V.V.I., priority 2019, published 2022).
